Our source for the IC50 values is PMC4315936 (Redox Biology, 2015).

The target in this experiment is mitochondrial complex I (NADH:ubiquinone oxidoreductase, NQR) (Mus musculus, UniProt P03888+Q91WD5+Q9DC70). As to the kind of experiment: NQR activity. It is filed as biochemical.

For `O=C1Nc2ccc(Cl)cc2[C@@](C#CC2CC2)(C(F)(F)F)O1` [EFV, efavirenz], the IC50 was < 10 µM.
